The test system of test [1] is P. falciparum 3D7. The experiment in a line: P. falciparum ED50 determination, [3H]-hypoxanthine incorporation, strain 3D7. It is filed as cell-based, Plasmodium falciparum. As to conditions: Plasmodium falciparum, 3D7, strain 3D7; concentration decreasing hypoxanthine incorporation into parasites twofold; read-out: ED50 3D7. The source says: (§1) Plasmodium strains. The P. falciparum strains used in this study were 3D7 (Netherlands, sensitive) provided by Dr. Pradipsinh Rathod from the University of Washington and K1 (Thailand, ChQ-R, Pyr-R) obtained from the MR4Unit of the American Type Culture Collection (ATCC, Manassas, Va.).
(§2) P. falciparum culture. Strains of P. falciparum were sustained in vitro based on experimental techniques as described by Trager and Jensen.^26 Cultures were maintained in RPMI-1640 (Sigma, St. Louis, […].) with 2 mM L-glutamine, 25 mM HEPES, 33 mM NaHCO3, 20 μg/ml gentamicin sulfate and 20% (v/v) heat-inactivated human plasma type A+ (R^P-20P). Type A+ erythrocytes were obtained from lab donors, washed three times with RPMI, re-suspended in 50% RPMI, and stored at 4° C. Parasites were grown in 10 mL of a 2% hematocrit/RP-20P (v/v) in 50-mL flasks under a 5% CO2, 5% O2, and 90% N2 atmosphere.
(§3) P. falciparum ED50 determination. One […]L of PFTI dissolved in DMSO was added to each well of a 96-well plate followed by the addition of 200 μL of P. falciparum culture at parasitemia and hematocrit of 0.5%. Plates were flushed with 5% CO2, 5% O2, and 90% N2 then incubated at 37° C. for 48 hr. [8-^3H]-hypoxanthine (0.3 μCi, 20 Ci/mmol, American Radiolabeled Chemicals) in 30 μL RP-20P was added to cultures and incubated for an additional 24 hours. Cells were harvested onto filter mats by a Multiharvester (Skatron, Sunnyvale, Calif.) and the radioactivity incorporated into the parasites was counted on a β-scintillation counter. The background level detected with uninfected erythrocytes was subtracted from the data. The ^3H-incorporation into infected RBCs with 1 μL DMSO vehicle alone represents 100% malaria growth. ED50 values were determined by linear regression analysis of the plots of ^3H-hypoxanthine incorporation versus concentration of compound.

Test [2] addresses T1, PfPFT (Plasmodium falciparum, UniProt Q8I503+Q8IHP6).
T1 sequence (Q8I503 1-521): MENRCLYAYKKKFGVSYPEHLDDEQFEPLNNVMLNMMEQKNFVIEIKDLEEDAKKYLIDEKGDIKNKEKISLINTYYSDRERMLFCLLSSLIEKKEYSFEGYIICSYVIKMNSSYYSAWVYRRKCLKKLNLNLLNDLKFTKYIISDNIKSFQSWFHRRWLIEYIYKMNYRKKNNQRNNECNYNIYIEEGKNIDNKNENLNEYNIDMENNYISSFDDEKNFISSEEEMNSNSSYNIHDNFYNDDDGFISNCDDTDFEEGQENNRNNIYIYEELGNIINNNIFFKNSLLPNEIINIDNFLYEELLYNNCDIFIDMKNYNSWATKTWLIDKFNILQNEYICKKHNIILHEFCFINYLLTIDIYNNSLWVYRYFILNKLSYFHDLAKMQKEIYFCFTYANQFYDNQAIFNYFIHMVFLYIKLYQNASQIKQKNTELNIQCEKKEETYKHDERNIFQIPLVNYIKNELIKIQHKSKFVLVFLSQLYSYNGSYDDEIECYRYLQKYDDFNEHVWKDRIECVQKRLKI
T1 sequence (Q8IHP6 1-923): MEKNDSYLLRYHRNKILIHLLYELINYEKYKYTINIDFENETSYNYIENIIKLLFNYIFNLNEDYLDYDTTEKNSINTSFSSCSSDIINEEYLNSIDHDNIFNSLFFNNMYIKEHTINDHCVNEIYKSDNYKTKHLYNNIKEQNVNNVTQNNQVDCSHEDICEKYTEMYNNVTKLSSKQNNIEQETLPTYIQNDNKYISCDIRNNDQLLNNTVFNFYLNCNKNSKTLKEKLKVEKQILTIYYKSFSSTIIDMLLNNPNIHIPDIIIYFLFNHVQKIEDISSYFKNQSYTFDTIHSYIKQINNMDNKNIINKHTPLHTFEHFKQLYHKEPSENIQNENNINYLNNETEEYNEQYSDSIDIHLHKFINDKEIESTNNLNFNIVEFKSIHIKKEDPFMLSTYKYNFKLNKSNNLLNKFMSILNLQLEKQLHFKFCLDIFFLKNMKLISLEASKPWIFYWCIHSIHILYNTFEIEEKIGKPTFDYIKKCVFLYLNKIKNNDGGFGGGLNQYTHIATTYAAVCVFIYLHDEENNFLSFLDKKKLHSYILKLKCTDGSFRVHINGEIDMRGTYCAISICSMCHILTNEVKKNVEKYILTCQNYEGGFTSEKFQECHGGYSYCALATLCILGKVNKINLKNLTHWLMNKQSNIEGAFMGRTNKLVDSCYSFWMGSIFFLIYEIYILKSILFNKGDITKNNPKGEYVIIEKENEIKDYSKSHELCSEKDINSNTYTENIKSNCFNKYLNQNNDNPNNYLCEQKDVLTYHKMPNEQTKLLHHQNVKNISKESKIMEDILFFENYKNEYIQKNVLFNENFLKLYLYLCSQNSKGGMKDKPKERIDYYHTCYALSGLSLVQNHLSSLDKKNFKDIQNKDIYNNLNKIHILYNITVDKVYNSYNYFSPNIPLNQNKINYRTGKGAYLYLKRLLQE
The experiment in a line: PfPFT inhibition, scintillation proximity assay with partially purified PfPFT. It is filed as biochemical. The following applies: for inhibition at 0.005 µM: read-out: % Inhibition of PfPFT at 5 nM, inhibitor at 5 nM; for inhibition at 0.05 µM: read-out: % Inhibition of PfPFT at 50 nM, inhibitor at 50 nM. Background: SPA uses beads or plates that emit light when radiolabelled molecules are held near them.

Test [3] concerns P. falciparum K1. The test is described as follows: P. falciparum ED50 determination, [3H]-hypoxanthine incorporation, strain K1. It is filed as cell-based, Plasmodium falciparum. The following applies: Plasmodium falciparum, K1, strain K1; concentration decreasing hypoxanthine incorporation into parasites twofold; read-out: ED50 K1.
From the text: as §1, §2, §3

Results on 8 compounds are retold here after US20080312287A1, “Compound and Methods For the Treatment of Cancer and Malaria” (University of Washington, priority 2005, published 2008).

SMILES strings stand for the structures.

Regarding `C=CCN(CCN(Cc1cncn1C)c1ccc(C#N)cc1)S(=O)(=O)c1cn(C)cn1` [Compound 8l, 1-Methyl-1H-imidazole-4-sulfonic acid allyl-{2-[(4-cyano-phenyl)-(3-methyl-3H-imidazol-4-ylmethyl)-amino]-ethyl}-amide], in test [1], the EC50 is greater than 5 µM. Moreover, in test [2], the inhibition at 0.005 µM worked out at 1% and the inhibition at 0.05 µM was found to be 42%. The EC50 in test [3] is greater than 5 µM.
As for `C=C(C)CN(CCN(Cc1cncn1C)c1ccc(C#N)cc1)S(=O)(=O)c1cn(C)cn1` [Compound 8m, 1-Methyl-1H-imidazole-4-sulfonic acid {2-[(4-cyano-phenyl)-(3-methyl-3H-imidazol-4-ylmethyl)-amino]-ethyl}-(2-methyl-allyl)-amide], in test [1], the EC50 was greater than 5 µM. Moreover, in test [2], the inhibition at 0.005 µM stood at 6% and the inhibition at 0.05 µM is 77%. Moreover, in test [3], the EC50 was greater than 5 µM.
Consider `C=C(Br)CN(CCN(Cc1cncn1C)c1ccc(C#N)cc1)S(=O)(=O)c1cn(C)cn1` [Compound 8n, 1-Methyl-1H-imidazole-4-sulfonic acid (2-bromo-allyl)-{2-[(4-cyano-phenyl)-(3-methyl-3H-imidazol-4-ylmethyl)-amino]-ethyl}-amide], for which the EC50 in test [1] was greater than 5 µM. Further, in test [2], the inhibition at 0.005 µM is 25% and the inhibition at 0.05 µM was 80%. In addition, the EC50 in test [3] was greater than 5 µM.
As for `Cn1cnc(S(=O)(=O)N(CCN(Cc2cncn2C)c2ccc(C#N)cc2)CCn2cccc2)c1` [Compound 8p, 1-Methyl-1H-imidazole-4-sulfonic acid {2-[(4-cyano-phenyl)-(3-methyl-3H-imidazol-4-ylmethyl)-amino]-ethyl}-(2-pyrrol-1-yl-ethyl)-amide], the EC50 in test [1] and in test [3] was greater than 5 µM each time. Further, in test [2], the inhibition at 0.005 µM stood at 11%. Also, the inhibition at 0.05 µM in test [2] is 56%.
For `Cn1cnc(S(=O)(=O)N(CCN(Cc2cncn2C)c2ccc(C#N)cc2)CC2CCOCC2)c1` [Compound 8r, 1-Methyl-1H-imidazole-4-sulfonic acid {2-[(4-cyano-phenyl)-(3-methyl-3H-imidazol-4-ylmethyl)-amino]-ethyl}-(tetrahydro-pyran-4-ylmethyl)-amide], in test [1], the EC50 came to 0.575 µM. In test [2], the inhibition at 0.005 µM turned out to be 28% and the inhibition at 0.05 µM is 84%. Further, in test [3], the EC50 was found to be 0.4 µM.
Take `Cn1cnc(S(=O)(=O)N(CCN(Cc2cncn2C)c2ccc(C#N)cc2)CC2CCNCC2)c1` [Compound 8s, 1-Methyl-1H-imidazole-4-sulfonic acid {2-[(4-cyano-phenyl)-(3-methyl-3H-imidazol-4-ylmethyl)-amino]-ethyl}-piperidin-4-ylmethyl-amide]: the EC50 in test [1] and in test [3] was greater than 5 µM each time. Further, in test [2] (SAR discussion of Table 4), the activity in words result was “inactive”. In test [2], the inhibition at 0.005 µM came to 5%. Besides, the inhibition at 0.05 µM in test [2] was found to be 5%.
Regarding `CC(=O)N1CCC(CN(CCN(Cc2cncn2C)c2ccc(C#N)cc2)S(=O)(=O)c2cn(C)cn2)CC1` [Compound 8t, 1-Methyl-1H-imidazole-4-sulfonic acid (1-acetyl-piperidin-4-ylmethyl)-{2-[(4-cyano-phenyl)-(3-methyl-3H-imidazol-4-ylmethyl)-amino]-ethyl}-amide], the EC50 in test [1] stood at 5 µM. In test [2], the inhibition at 0.005 µM came out at 8% and the inhibition at 0.05 µM was 44%. Moreover, the EC50 in test [3] was 3.5 µM.
The like results for `CC(C)C(=O)N1CCC(CN(CCN(Cc2cncn2C)c2ccc(C#N)cc2)S(=O)(=O)c2cn(C)cn2)CC1` [Compound 8u, 1-Methyl-1H-imidazole-4-sulfonic acid {2-[(4-cyano-phenyl)-(3-methyl-3H-imidazol-4-ylmethyl)-amino]-ethyl}-(1-isobutyryl-piperidin-4-ylmethyl)-amide] were, in that order, 0.23 µM, 57%, 92% and 0.18 µM.

In general, inhibition refers to the percentage by which the read-out fell short of the control.
